Test results as given in publication PMC6572064, “Discovery of 2-(1-(3-(4-Chloroxyphenyl)-3-oxo- propyl)pyrrolidine-3-yl)-1H-benzo[d]imidazole-4-carboxamide: A Potent Poly(ADP-ribose) Polymerase (PARP) Inhibitor for Treatment of Cancer” (Molecules, 2019).
Read-outs that look alike come from different tables or passages of the source.

Assays:
PARP-1 = target: T1, PARP-1 (Homo sapiens, UniProt P09874); test: PARP-1 inhibition assay (PARP-1 Chemiluminescent Assay Kit, BPS Bioscience); assay type: biochemical; settings: for inhibition at 0.01 µM: 10 nM compound
T1 construct: purchased BPS Bioscience 80569
Protocol: (§1) The PARP-1 and PARP-2 inhibition assays were performed in outsourcing, by a CRO company, Shanghai Medicilon Inc. (Shanghai, China). […] Briefly, PARP-1 or PARP-2 biotinylated substrate was incubated with compounds or solvent control at varying concentrations and an assay buffer containing the PARP-1 or PARP-2 enzyme.

PARP-2 = target: T2, PARP-2 (Homo sapiens, UniProt Q9UGN5); test: PARP-2 inhibition assay (PARP-2 Chemiluminescent Assay Kit, BPS Bioscience); assay type: biochemical; settings: for inhibition at 0.01 µM: 10 nM compound
T2 construct: purchased BPS Bioscience 80552
Protocol: as §1

[1] = test system: MDA-MB-436 (a BRCA-1-mutated breast cancer cell line); test: Cell proliferation assay, three-day, CellTiter-Glo, MDA-MB-436; assay type: cell-based; settings: for inhibition at 0.00508 µM / inhibition at 0.0152 µM / inhibition at 0.0457 µM / inhibition at 0.41 µM / inhibition at 1.23 µM / inhibition at 3.7 µM / inhibition at 11.11 µM / inhibition at 33.33 µM / inhibition at 100 µM / IC50: Homo sapiens; for inhibition at 0.00508 µM: MDA-MB-436, MDA-MB-436, Conc. 0.00508 uM; for inhibition at 0.0152 µM: MDA-MB-436, MDA-MB-436, Conc. 0.0152 uM; for inhibition at 0.0457 µM: MDA-MB-436, MDA-MB-436, Conc. 0.0457 uM; for inhibition at 0.41 µM: MDA-MB-436, MDA-MB-436, Conc. 0.41 uM; for inhibition at 1.23 µM: MDA-MB-436, MDA-MB-436, Conc. 1.23 uM; for inhibition at 3.7 µM: MDA-MB-436, MDA-MB-436, Conc. 3.70 uM; for inhibition at 11.11 µM: MDA-MB-436, MDA-MB-436, Conc. 11.11 uM; for inhibition at 33.33 µM: MDA-MB-436, MDA-MB-436, Conc. 33.33 uM; for inhibition at 100 µM: MDA-MB-436, MDA-MB-436, Conc. 100.00 uM
How it was run: (§2)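 Luminescent ATP read-out (CellTiter-Glo, 60 min at room temperature) quantified viability after a 72 h compound exposure at 37 °C, 5% CO2. Compounds, diluted from DMSO stocks into growth medium, were added to cells plated the previous day.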

[2] = test system: CAPAN-1 (a BRCA-2-mutated pancreatic cancer cell line); test: Cell proliferation assay, three-day, CellTiter-Glo, CAPAN-1; assay type: cell-based; settings: for IC50 / inhibition at 0.00508 µM / inhibition at 0.0152 µM / inhibition at 0.0457 µM / inhibition at […] / inhibition at 0.41 µM / inhibition at 1.23 µM / inhibition at 3.7 µM / inhibition at 11.11 µM / inhibition at 33.33 µM / inhibition at 100 µM: Homo sapiens; for inhibition at 0.00508 µM: CAPAN-1, 0.00508 uM; for inhibition at 0.0152 µM: CAPAN-1, 0.0152 uM; for inhibition at 0.0457 µM: CAPAN-1, 0.0457 uM; for inhibition at […]: CAPAN-1, 0.14 uM; for inhibition at 0.41 µM: CAPAN-1, 0.41 uM; for inhibition at 1.23 µM: CAPAN-1, 1.23 uM; for inhibition at 3.7 µM: CAPAN-1, 3.70 uM; for inhibition at 11.11 µM: CAPAN-1, 11.11 uM; for inhibition at 33.33 µM: CAPAN-1, 33.33 uM; for inhibition at 100 µM: CAPAN-1, 100.00 uM
How it was run: as §2

T2 sequence (Q9UGN5 whole entry): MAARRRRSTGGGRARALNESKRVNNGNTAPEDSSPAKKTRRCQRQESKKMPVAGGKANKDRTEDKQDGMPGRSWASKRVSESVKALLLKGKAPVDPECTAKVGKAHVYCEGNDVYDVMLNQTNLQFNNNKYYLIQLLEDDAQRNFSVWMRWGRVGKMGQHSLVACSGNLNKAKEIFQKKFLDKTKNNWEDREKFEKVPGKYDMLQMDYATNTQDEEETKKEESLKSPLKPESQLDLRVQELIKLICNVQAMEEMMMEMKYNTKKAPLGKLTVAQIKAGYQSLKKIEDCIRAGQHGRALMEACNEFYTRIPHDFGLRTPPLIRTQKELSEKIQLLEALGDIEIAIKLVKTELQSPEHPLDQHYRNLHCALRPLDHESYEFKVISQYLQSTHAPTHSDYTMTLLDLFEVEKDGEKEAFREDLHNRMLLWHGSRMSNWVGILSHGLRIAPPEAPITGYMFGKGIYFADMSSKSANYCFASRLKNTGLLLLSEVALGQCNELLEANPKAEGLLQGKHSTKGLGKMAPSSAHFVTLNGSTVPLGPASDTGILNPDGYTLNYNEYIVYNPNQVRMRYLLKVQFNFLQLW
T1 sequence (P09874 whole entry): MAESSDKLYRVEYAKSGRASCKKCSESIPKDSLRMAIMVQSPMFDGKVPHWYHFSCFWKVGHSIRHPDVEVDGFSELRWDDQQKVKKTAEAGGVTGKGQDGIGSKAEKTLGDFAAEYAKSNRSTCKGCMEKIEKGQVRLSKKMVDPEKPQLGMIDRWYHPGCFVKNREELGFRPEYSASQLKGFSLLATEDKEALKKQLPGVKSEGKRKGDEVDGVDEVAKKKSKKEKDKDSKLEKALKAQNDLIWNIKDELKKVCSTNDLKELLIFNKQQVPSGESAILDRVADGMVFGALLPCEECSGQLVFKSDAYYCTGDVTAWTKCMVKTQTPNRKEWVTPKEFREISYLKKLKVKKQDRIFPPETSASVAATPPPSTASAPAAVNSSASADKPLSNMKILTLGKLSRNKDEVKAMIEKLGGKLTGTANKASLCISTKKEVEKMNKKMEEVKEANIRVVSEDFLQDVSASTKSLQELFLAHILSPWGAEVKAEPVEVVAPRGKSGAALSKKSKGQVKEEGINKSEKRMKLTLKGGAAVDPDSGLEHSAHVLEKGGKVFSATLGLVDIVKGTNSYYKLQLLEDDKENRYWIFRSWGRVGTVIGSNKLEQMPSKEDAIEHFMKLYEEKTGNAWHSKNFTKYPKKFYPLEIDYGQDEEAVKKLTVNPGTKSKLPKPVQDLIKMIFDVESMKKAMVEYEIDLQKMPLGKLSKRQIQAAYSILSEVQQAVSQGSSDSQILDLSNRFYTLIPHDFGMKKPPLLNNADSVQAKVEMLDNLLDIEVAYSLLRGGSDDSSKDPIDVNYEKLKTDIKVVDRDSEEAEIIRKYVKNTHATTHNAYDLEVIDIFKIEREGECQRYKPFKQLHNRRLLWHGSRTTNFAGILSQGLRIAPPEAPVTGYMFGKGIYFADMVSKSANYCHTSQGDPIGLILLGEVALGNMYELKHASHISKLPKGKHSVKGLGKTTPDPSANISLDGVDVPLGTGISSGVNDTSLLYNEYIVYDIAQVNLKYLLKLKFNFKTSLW

inhibition at 0.01 µM (PARP-1; supplement sheet, read-out: 10 nM inhibition% PAPR-1): 59.2%
inhibition at 0.01 µM (PARP-1; read-out: PARP-1 Inhibition % (10 nM)): 59.2%
IC50 (PARP-1; read-out: PARP-1 IC50): 0.0059 µM
IC50 (PARP-1; supplement sheet, read-out: IC50 PAPR-1): 0.00586 µM
inhibition at 0.01 µM (PARP-2; supplement sheet, read-out: 10 nM inhibition% PAPR-2): 62.5%
inhibition at 0.01 µM (PARP-2; read-out: PARP-2 Inhibition % (10 nM)): 62.5%
IC50 (PARP-2; read-out: PARP-2 IC50): 0.0045 µM
IC50 (PARP-2; supplement sheet, read-out: IC50 PAPR-2): 0.00452 µM
IC50 ([1]; MDA-MB-436, 72 h, CellTiter-Glo, read-out: MDA-MB-436 IC50): 38.6 µM
IC50 ([1]; MDA-MB-436, 72 h, supplement Summary sheet, read-out: IC50): 38.6 µM
IC50 ([1]; MDA-MB-436, curve fit list, no unit in the cell, concentration in uM, read-out: IC50): 38.6 µM
IC50 ([2]; CAPAN-1, 72 h, CellTiter-Glo, read-out: CAPAN-1 IC50): 48.1 µM
IC50 ([2]; CAPAN-1, 72 h, supplement Summary sheet, read-out: IC50): 48.1 µM
IC50 ([2]; CAPAN-1, curve-fit output, concentrations in uM, read-out: IC50): 48.1 µM
Compound: COc1ccc(C(=O)CCN2CCC(c3nc4c(C(N)=O)cccc4[nH]3)C2)cc1 (centres unmarked) [Compound 5ci, 2-(1-(3-(4-Methoxyphenyl)-3-oxopropyl)pyrrolidin-3-yl)-1H-benzo[d]imidazole-4-carboxamide]
inhibition at 0.00508 µM ([1]; replicate 1, read-out: Inh % 1): -3.7%
inhibition at 0.00508 µM ([1]; replicate 2, read-out: Inh % 2): -7.9%
inhibition at 0.0152 µM ([1]; replicate 1, read-out: Inh % 1): -0.252%
inhibition at 0.0152 µM ([1]; replicate 2, read-out: Inh % 2): -7.1%
inhibition at 0.0457 µM ([1]; replicate 1, read-out: Inh % 1): -8.5%
inhibition at 0.0457 µM ([1]; replicate 2, read-out: Inh % 2): -13.5%
inhibition at 0.41 µM ([1]; replicate 1, read-out: Inh % 1): -19.2%
inhibition at 0.41 µM ([1]; replicate 2, read-out: Inh % 2): -15.9%
inhibition at 1.23 µM ([1]; replicate 1, read-out: Inh % 1): -9.5%
inhibition at 1.23 µM ([1]; replicate 2, read-out: Inh % 2): -17.4%
inhibition at 3.7 µM ([1]; replicate 1, read-out: Inh % 1): -10.7%
inhibition at 3.7 µM ([1]; replicate 2, read-out: Inh % 2): -17.4%
inhibition at 11.11 µM ([1]; replicate 1, read-out: Inh % 1): -13.6%
inhibition at 11.11 µM ([1]; replicate 2, read-out: Inh % 2): -15.6%
inhibition at 33.33 µM ([1]; replicate 1, read-out: Inh % 1): 7.8%
inhibition at 33.33 µM ([1]; replicate 2, read-out: Inh % 2): 1.7%
inhibition at 100 µM ([1]; replicate 1, read-out: Inh % 1): 89.3%
inhibition at 100 µM ([1]; replicate 2, read-out: Inh % 2): 86.7%
LogIC50 ([1]; MDA-MB-436, curve fit on Log (uM) concentrations): ~ 1.587
Bottom ([1]; MDA-MB-436, curve fit parameter (Inh %)): -11.35
Top ([1]; MDA-MB-436, curve fit parameter (Inh %), '= 100.0' is a constrained value): 88
LogIC50 ([2]; CAPAN-1, curve-fit output, Log (uM)): 1.682
inhibition at 0.00508 µM ([2]; replicate 1, read-out: Inh % 1): 3.5%
inhibition at 0.00508 µM ([2]; replicate 2, read-out: Inh % 2): -8.1%
inhibition at 0.0152 µM ([2]; replicate 1, read-out: Inh % 1): 3.7%
inhibition at 0.0152 µM ([2]; replicate 2, read-out: Inh % 2): 5.2%
inhibition at 0.0457 µM ([2]; replicate 1, read-out: Inh % 1): 2.3%
inhibition at 0.0457 µM ([2]; replicate 2, read-out: Inh % 2): -3.2%
inhibition at […] ([2]; replicate 1, read-out: Inh % 1): 7.9%
inhibition at […] ([2]; replicate 2, read-out: Inh % 2): 5.4%
inhibition at 0.41 µM ([2]; replicate 1, read-out: Inh % 1): 9.3%
inhibition at 0.41 µM ([2]; replicate 2, read-out: Inh % 2): -5.7%
inhibition at 1.23 µM ([2]; replicate 1, read-out: Inh % 1): -11.8%
inhibition at 1.23 µM ([2]; replicate 2, read-out: Inh % 2): -10.7%
inhibition at 3.7 µM ([2]; replicate 1, read-out: Inh % 1): 0.241%
inhibition at 3.7 µM ([2]; replicate 2, read-out: Inh % 2): -0.2%
inhibition at 11.11 µM ([2]; replicate 1, read-out: Inh % 1): 6%
inhibition at 11.11 µM ([2]; replicate 2, read-out: Inh % 2): -3.5%
inhibition at 33.33 µM ([2]; replicate 1, read-out: Inh % 1): 27.1%
inhibition at 33.33 µM ([2]; replicate 2, read-out: Inh % 2): 18.7%
inhibition at 100 µM ([2]; replicate 1, read-out: Inh % 1): 85.7%
inhibition at 100 µM ([2]; replicate 2, read-out: Inh % 2): 75.3%
